What was measured:
[1] = FAERS-based analysis, rank order; cited from earlier work
IL-1β = experiment: Detection of the level of IL-1β in serum of db/db mice by ELISA kit (Example 1); type: in vivo; conditions: 6 weeks, compared to Model group
From the text: (§1) Db/db mice are type II diabetes mice caused by leptin receptor gene defect located on chromosome 4. They began to drink, eat, urinate and be obese at the age of 4 weeks. With the increase of age, they have obvious characteristics of hyperglycemia, hyperlipidemia and insulin resistance. Their pathogenesis is very similar to that of type II diabetes patients. With the aggravation of diabetes, db/db mice have a series of complications. The main pathological changes of kidney tissue are dilation of glomerular mesangial interstitium, thickening of glomerular basement membrane, excessive accumulation of extracellular matrix, etc. It is a good model to study the early morphological changes of DKD kidney.
(§2) 6-week-old db/db mice were given adaptive feeding for 1 week (i.e. 7 weeks), with TBN and TN-2 administered separately and in combination with Empagliflozin twice a day (fixed at 9:00-10:00 am and 3:00-4:00 pm, with an interval of 6 hours), for a continuous 6 weeks of administration.
(§3) After 6 weeks of administration, the whole blood was left to stand at room temperature for 1 hour. Then, it was transferred to a centrifuge and centrifuged at 3000 rpm for 10 minutes. The upper layer of serum was taken out and placed in an EP tube and stored in a −20° C. freezer for later use. Detection the level of IL-6 and IL-1β in serum of mice in each group using ELISA kit.

IL-6 = experiment: Detection of the level of IL-6 in serum of db/db mice by ELISA kit (Example 1); type: in vivo; conditions: for Changes in IL-6: 6 weeks, serum of db/db mice, compared to Model group; for content of IL-6 in the serum of model animals (in words): alone or in combination with a SGLT-2 inhibitor (such as Entegliflozin)
From the text: as §1, §2, §3

db/db mice [2] = experiment: Blood glucose testing in db/db mice, TBN/TN-2 alone and with Empagliflozin (Example 1); type: in vivo; conditions: for Changes in blood glucose: 6 weeks, compared to Model group; for blood sugar (in words): in combination with a SGLT-2 inhibitor
From the text: as §1, §2
During the experiment, blood was collected from the tail vein of mice before the start of administration (7 weeks old) to measure their blood glucose levels; After the completion of administration (at 13 weeks of mouse age, i.e. the end of the experiment), serum was taken and the blood glucose levels of each group of mice were measured using a fully automated biochemical analyzer.

db/db mice [3] = experiment: Detection of 24-hour urinary microalbumin in db/db mice by ELISA kit (Example 1); type: in vivo; conditions: for Changes in urinary microalbumin: 24-hour urine, compared to Model group; for 24-hour urinary microalbumin (in words): in combination with a SGLT-2 inhibitor
From the text: as §1, §2
Db/db mice were tested for 24-hour urinary microalbumin at 4 and 6 weeks after drug treatment. Each group of mice was placed in a metabolic cage, drinking water freely, and 24-hour urine samples were collected. After centrifugation and precipitation, the levels of microalbuminuria in the 24-hour urine of each group of mice were detected using an ELISA kit.

db/db mice [4] = experiment: Urinary albumin creatinine ratio in db/db mice; type: in vivo; conditions: in combination with a SGLT-2 inhibitor
[5] = system: Patients of type II diabetic kidney disease; experiment: Clinical trial of TBN and TBN + SGLT2i: change of UACR relative to baseline (Example 3); type: in vivo, human
Procedure: The present invention adopts a test design of multicenter, randomized, double-blind, placebo-controlled parallel control.
Subjects of the experiments: Patients of type II diabetic kidney disease were taken as the subjects in the experiments (all signed the informed consent form). In at least 2 of the 3 morning urine in the screening period, the urinary microalbumin/creatinine ratio (UACR) is of ≥30 mg/g and <300 mg/g.
The medication schedule: Administration of 180 consecutive days. In this example, SGLT2i is commercially available SGLT2i, selected from Engliflozin, Dapagliflozin, and Cargliflozin: Engliflozin once daily, 10 mg; Dapagliflozin once daily, 10 mg; Kagliflozin once daily, 100 mg. In the three subjects in the 300 mg TBN+SGLT2i group, one subject took Engliflozin and two subjects took Dapagliflozin; in the three subjects in the 600 mg TBN+SGLT2i group, all took Dapagliflozin; in the […] in the 1200 mg TBN+SGLT2i group, two subjects took Canagliflozin, one subject took Entegliflozin, and one subject took Dapagliflozin; in the SGLT2i group, one subject took Dapagliflozin.

[6] = Empagliflozin 2.5 mg/kg twice/day i.g.
[7] = Empagliflozin 5 mg/kg twice/day i.g.

## CCOc1ccc(Cc2cc([C@@H]3O[C@H](CO)[C@@H](O)[C@H](O)[C@H]3O)ccc2Cl)cc1 [Dapagliflozin]
[1]
  signal intensity comparison of urinary tract infections: dapagliflozin>canagliflozin>empagliflozin

## OC[C@H]1O[C@@H](c2ccc(Cl)c(Cc3ccc(O[C@H]4CCOC4)cc3)c2)[C@H](O)[C@@H](O)[C@@H]1O [Empagliflozin, reference compound]
IL-1β; [6]
  Changes in IL-1β: −2.36%
IL-1β; [7]
  Changes in IL-1β: −16.32%
IL-6; [6]
  Changes in IL-6: −8.55%
IL-6; [7]
  Changes in IL-6: −75.05%
db/db mice [2]; [6]
  Changes in blood glucose: −38.03%
db/db mice [2]; [7]
  Changes in blood glucose: −44.33%
db/db mice [3]; [6]
  Changes in urinary microalbumin: −4.18%
db/db mice [3]; [7]
  Changes in urinary microalbumin: −18.62%
[1]
  signal intensity comparison of urinary tract infections: dapagliflozin>canagliflozin>empagliflozin

## Cc1nc(C)c(/C=[N+](\[O-])C(C)(C)C)nc1C [TBN, tetramethylpyrazine nitrone]
db/db mice [4]
  urinary albumin creatinine ratio (in words): reduce
IL-1β; TBN 10 mg/kg twice/day i.g.
  Changes in IL-1β: −5.88%
IL-1β; TBN 30 mg/kg twice/day i.g.
  Changes in IL-1β: 0.20%
IL-6; TBN 10 mg/kg twice/day i.g.
  Changes in IL-6: −36.43%
IL-6; TBN 30 mg/kg twice/day i.g.
  Changes in IL-6: −58.34%
IL-6
  content of IL-6 in the serum of model animals (in words): significantly reduce
[5]; TBN 300 mg twice/day po, n = 18, Day 90
  Percentage of changes in UACR relative baseline, Day 90 LS Mean: −1.48%
[5]; TBN 600 mg twice/day po, n = 19, Day 90
  Percentage of changes in UACR relative baseline, Day 90 LS Mean: −43.32%
[5]; TBN 1200 mg twice/day po, n = 14, Day 90
  Percentage of changes in UACR relative baseline, Day 90 LS Mean: −37.08%
db/db mice [2]; TBN 10 mg/kg twice/day i.g.
  Changes in blood glucose: −0.80%
db/db mice [2]; TBN 30 mg/kg twice/day i.g.
  Changes in blood glucose: −17.13%
db/db mice [2]
  blood sugar (in words): synergistically lower
db/db mice [3]; TBN 10 mg/kg twice/day i.g.
  Changes in urinary microalbumin: −0.61%
db/db mice [3]; TBN 30 mg/kg twice/day i.g.
  Changes in urinary microalbumin: −23.09%
db/db mice [3]
  24-hour urinary microalbumin (in words): reduce

## Cc1nc(/C=[N+](\[O-])C(C)(C)C)c(C)nc1/C=[N+](\[O-])C(C)(C)C [TN-2]
db/db mice [4]
  urinary albumin creatinine ratio (in words): reduce
IL-6
  content of IL-6 in the serum of model animals (in words): significantly reduce
db/db mice [2]
  blood sugar (in words): synergistically lower
db/db mice [3]
  24-hour urinary microalbumin (in words): reduce
